Measured values taken from patent US20080108641A1, “Compounds for treating inflammatory disorders, demyelinating disdorders and cancers” (priority 2006, published 2008).
Where two headings read alike, the source gives them in different places.

Key:
[1] = tested on: colorectal cancer cell lines (HT29 & HCT116); test: Microarray differential gene expression (CodeLink Human Whole Genome Bioarrays); assay type: cell-based
[2] = tested on: Experimental Autoimmune Encephalomyelitis (EAE); conditions: for mean clinical severity score: 20 mg/kg i.p. once a week
IL-10 = test: Mediator release, IL-10 (Con A-stimulated PBML, sandwich ELISA); assay type: cell-based; conditions: Homo sapiens
Method: In this experiment, test compound and/or vehicle were preincubated with human peripheral blood mononuclear leukocyte (PBML, 1×10^6/ml) in RPMI buffer pH 7.4 for 2 hours. Concanavalin A (Con A, 20 μg/ml) was then added to stimulate the cells overnight in 5% CO2 at 37° C. IL-4 and IL-10 cytokine levels in the conditioned medium were then quantified using a sandwich ELISA kit. Compounds were screened at 10, 1, 0.1, 0.01 and 0.001 μM.

[3] = 20 mg/kg i.p. weekly for 4, 6 and 8 weeks

SMILES: CCN(CC)CCNc1ccc2ncn3c4ccc(O)cc4c(=O)c1c23 [Symadex™]
- MEAN FOLD CHANGE OVER CONTROL ([1]; gene MSLN): −17.46
- MEAN FOLD CHANGE OVER CONTROL ([1]; gene MT1A): −16.21
- MEAN FOLD CHANGE OVER CONTROL ([1]; gene MT2A): −2.09
- MEAN FOLD CHANGE OVER CONTROL ([1]; gene MTIF2): −59.05
- MEAN FOLD CHANGE OVER CONTROL ([1]; gene MXD3): −2.66
- MEAN FOLD CHANGE OVER CONTROL ([1]; gene MYBPC2): −21.22
- MEAN FOLD CHANGE OVER CONTROL ([1]; gene MYO15A): −50.59
- MEAN FOLD CHANGE OVER CONTROL ([1]; gene NCF1): −33.67
- MEAN FOLD CHANGE OVER CONTROL ([1]; gene NCF2): −21.83
- MEAN FOLD CHANGE OVER CONTROL ([1]; gene NDUFA6): −2.51
- MEAN FOLD CHANGE OVER CONTROL ([1]; gene NDUFB3): −15.58
- MEAN FOLD CHANGE OVER CONTROL ([1]; gene NDUFV3): −10.52
- MEAN FOLD CHANGE OVER CONTROL ([1]; gene NEB): −6.89
- MEAN FOLD CHANGE OVER CONTROL ([1]; gene NFATC1): −16.69
- MEAN FOLD CHANGE OVER CONTROL ([1]; gene NFKBIB): −2.01
- MEAN FOLD CHANGE OVER CONTROL ([1]; gene NMI): −2.41
- MEAN FOLD CHANGE OVER CONTROL ([1]; gene NMU): −2.12
- MEAN FOLD CHANGE OVER CONTROL ([1]; gene NR0B1): −15.94
- MEAN FOLD CHANGE OVER CONTROL ([1]; gene NR2E1): −54.82
- MEAN FOLD CHANGE OVER CONTROL ([1]; gene NR2E3): −14.89
- MEAN FOLD CHANGE OVER CONTROL ([1]; gene NRG1): −17.54
- MEAN FOLD CHANGE OVER CONTROL ([1]; gene NT5C3): −2.08
- MEAN FOLD CHANGE OVER CONTROL ([1]; gene NT5E): −17.10
- MEAN FOLD CHANGE OVER CONTROL ([1]; gene NTHL1): −2.34
- MEAN FOLD CHANGE OVER CONTROL ([1]; gene NUCKS): −2.02
- MEAN FOLD CHANGE OVER CONTROL ([1]; gene NUDT1): −1.89
- MEAN FOLD CHANGE OVER CONTROL ([1]; gene NUP107): −2.68
- MEAN FOLD CHANGE OVER CONTROL ([1]; gene OLR1): −16.33
- MEAN FOLD CHANGE OVER CONTROL ([1]; gene OXCT): −2.68
- MEAN FOLD CHANGE OVER CONTROL ([1]; gene PAFAH1B1): −12.85
- MEAN FOLD CHANGE OVER CONTROL ([1]; gene PAFAH1B2): −2.25
- MEAN FOLD CHANGE OVER CONTROL ([1]; gene PAICS): −2.03
- MEAN FOLD CHANGE OVER CONTROL ([1]; gene PCDH7): −19.65
- MEAN FOLD CHANGE OVER CONTROL ([1]; gene PCSK2): −16.89
- MEAN FOLD CHANGE OVER CONTROL ([1]; gene PDCD5): −2.21
- MEAN FOLD CHANGE OVER CONTROL ([1]; gene PDE11A): −16.85
- MEAN FOLD CHANGE OVER CONTROL ([1]; gene PECAM1): −17.53
- MEAN FOLD CHANGE OVER CONTROL ([1]; gene PFKL): −10.55
- MEAN FOLD CHANGE OVER CONTROL ([1]; gene PHAX): −2.17
- MEAN FOLD CHANGE OVER CONTROL ([1]; gene PHF5A): −2.95
- MEAN FOLD CHANGE OVER CONTROL ([1]; gene PIR51): −3.73
- MEAN FOLD CHANGE OVER CONTROL ([1]; gene PLK4): −2.39
- MEAN FOLD CHANGE OVER CONTROL ([1]; gene PLXNA3): −8.04
- fold down-regulation of SULT4A1 ([1]; gene SULT4A1, text statement): ~300 fold
- fold down-regulation of the SYNE1 spectrin repeats ([1]; gene SYNE1, text statement): 1500 fold
- mean clinical severity score ([2]; 4-week treatment cycle (n=14), starting mean 1.3, p 0.0001 vs control): 0.7
- mean clinical severity score ([2]; 6 week treatment (n=3), control 1.3, p 0.009): 0.3
- B-cell counts vs controls [2, 3]: no significant deviation from controls
- CD4 and CD8 T-cell populations [2, 3]: Neither are CD4 or CD8 T-cell populations modulated
- total T-cell counts vs vehicle control [2, 3]: no difference
- disease course after drug withdrawal ([2]; 20 mg/kg i.p. weekly for 4 weeks, then 4 weeks vehicle, p 0.002 vs control): remained in stable disease
- clinical scores / disease progression ([2]; 20 mg/kg i.p., 2 doses 72 hours apart, from 30 days post immunization (n=3), p 0.002 vs control): reversed the progression of disease and restored baseline clinical scores
- clinical scores at end of treatment course ([2]; 20 mg/kg i.p., 8 consecutive weekly doses (n=3), p 0.0006 vs control): converges on baseline
- time to clinical recovery from the start of treatment ([2]; 40 mg/kg i.p. once a week for 4 weeks): ≤ 2 weeks
- clinical progress and pathological findings vs vehicle control ([2]; 20 and 40 mg/kg i.p. once a week for 4 weeks from day 40, p 0.004 (20 mg/kg), 0.001 (40 mg/kg)): profound and substantial change
- inflammatory cells in chronic demyelinated plaques ([2]; after prolonged treatment): virtually no remaining inflammatory cells
- endogenous remyelination ([2]; chronic-progressive model, after disease progression): effective in permitting endogenous remyelination
- scores for meningeal inflammation and perivascular infiltration ([2]; treated groups vs vehicle controls, weekly dosing for 4 weeks): more severe in the treated groups than in vehicle controls
- inhibition at 0.001 µM (IL-10; read-out: % inhibition of IL-10 release, 1 nM, read-out: % Growth Inhibition): 1%
- inhibition at 0.01 µM (IL-10; read-out: % inhibition of IL-10 release, 10 nM, read-out: % Growth Inhibition): 16%
- inhibition at 0.1 µM (IL-10; read-out: % inhibition of IL-10 release, 0.1 μM, read-out: % Growth Inhibition): 16%
- inhibition at 1 µM (IL-10; read-out: % inhibition of IL-10 release, 1 μM, read-out: % Growth Inhibition): 39%
- inhibition at 10 µM (IL-10; read-out: % inhibition of IL-10 release, 10 μM, read-out: % Growth Inhibition): 99%
- IC50 (IL-10; IL-10 release): 1.2 µM
